Measured values from patent US20250262315A1 (priority 2021, published 2025).
Values belong to the substance of their own block, whether it stands above or below them.

Experiments:
[1] = biological target: T1, human neutrophil elastase (Homo sapiens, UniProt P08246); test: Human neutrophil protease-mediated cleavage assay using pyrene probes: neutrophil elastase; format: biochemical; conditions: 37° C.; for % intact probe, Neutrophil elastase: after incubation for 24 h, n = 2, mean ± SEM; for stability against human neutrophil elastase-mediated degradation (in words): pyrene probes; for stability against degradation mediated by neutrophil elastase or mouse plasma (in words): additional probes
T1 construct: purchased MilliporeSigma
T1 sequence (P08246 30-267): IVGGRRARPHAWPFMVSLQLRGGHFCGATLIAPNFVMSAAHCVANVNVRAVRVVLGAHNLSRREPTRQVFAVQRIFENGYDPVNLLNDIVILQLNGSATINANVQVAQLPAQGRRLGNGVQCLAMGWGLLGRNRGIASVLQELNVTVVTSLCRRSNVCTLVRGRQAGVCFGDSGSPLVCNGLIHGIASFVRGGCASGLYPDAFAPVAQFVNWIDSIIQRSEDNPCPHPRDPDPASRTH
Method: (§1) Human neutrophil protease-mediated cleavage assay using pyrene probes. Each test compound (10 mM in DMSO, 2 μL) was mixed with 97 μL of tris-buffered saline (TBS, pH 7.4) and 1 μL of 1-pyrenemethylamine (10 mM in DMSO, internal standard). The mixture was incubated at 37° C. for 10 min. Human neutrophil elastase (40 ng μL^−1, 20 μL in TBS, MilliporeSigma), human proteinase 3 (250 ng μL^−1, 5 μL in TBS, MilliporeSigma) or human cathepsin G (330 ng μL^−1, 5 μL in TBS, MilliporeSigma) was added to the test compound mixture in 1:1 volume ratio, followed by incubation at 37° C. Aliquots (5 μL) were collected at each time point (0, 1, 3, 6, and 24 h for elastase; 0 and 24 h for proteinase 3 and cathepsin G). Cold acetonitrile containing 1% formic acid (25 μL) was added to precipitate proteins. The mixture was then kept at −20° C. for 30 min. Precipitated proteins were pelleted by centrifugation (15,000×g, 4° C., 30 min) and supernatant of each sample was analyzed for quantification by analytical HPLC (UV absorbance at 342 nm). The amount of each probe was normalized to the peak area of the internal standard. All assays were performed at least three times in technical duplicate, and data shown are representative of the replicates.

human proteinase 3 [2] = biological target: T2, human proteinase 3 (Homo sapiens, UniProt P24158); test: Human neutrophil protease-mediated cleavage assay using pyrene probes: proteinase 3; format: biochemical; conditions: for % intact probe, Proteinase 3: after incubation for 24 h, 37° C., n = 2, mean ± SEM; for resistance to cleavage by human proteinase 3 (in words): pyrene probes
T2 construct: purchased MilliporeSigma
T2 sequence (P24158 28-248): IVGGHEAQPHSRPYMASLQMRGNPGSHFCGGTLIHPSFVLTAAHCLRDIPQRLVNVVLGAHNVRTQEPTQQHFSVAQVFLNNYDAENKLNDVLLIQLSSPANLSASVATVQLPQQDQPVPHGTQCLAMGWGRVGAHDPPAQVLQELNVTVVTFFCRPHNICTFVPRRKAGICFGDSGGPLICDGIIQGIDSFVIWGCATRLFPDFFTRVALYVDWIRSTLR
Method: as §1

human cathepsin G [3] = biological target: T3, human cathepsin G (Homo sapiens, UniProt P08311); test: Human neutrophil protease-mediated cleavage assay using pyrene probes: cathepsin G; format: biochemical; conditions: for % intact probe, Cathepsin G: after incubation for 24 h, 37° C., n = 2, mean ± SEM
T3 construct: purchased MilliporeSigma
T3 sequence (P08311 21-244): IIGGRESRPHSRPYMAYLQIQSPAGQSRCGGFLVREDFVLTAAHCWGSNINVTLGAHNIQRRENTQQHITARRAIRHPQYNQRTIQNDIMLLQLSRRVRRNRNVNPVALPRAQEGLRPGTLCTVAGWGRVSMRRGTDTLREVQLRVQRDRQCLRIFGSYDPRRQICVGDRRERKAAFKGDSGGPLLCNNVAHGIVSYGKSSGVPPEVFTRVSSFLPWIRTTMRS
Method: as §1

[4] = Plasma stability test using pyrene probes, human plasma; format: in vitro ADME; conditions: for % intact probe, 48 h incubation, Human / % intact probe, 96 h incubation, Human: undiluted human plasma, 37° C.
Method: (§2) Plasma stability test using pyrene probes. Each test compound (10 mM in DMSO, 2 μL) was mixed with 1 μL of 1-pyrenemethylamine (10 mM in DMSO, internal standard) and incubated at 37° C. for 10 min. Pooled healthy human plasma, monkey cynomolgus plasma or BALB/c mouse plasma (197 μL, Innovative Research) was added to the mixture, followed by incubation at 37° C. Aliquots (5 μL) were collected at each time point (0, 48, and 96 h for human and monkey cynomolgus plasma; 0, 1, 6, 24, 48, and 96 h for BALB/c mouse plasma) and 25 μL of cold acetonitrile containing 1% formic acid was added to precipitate proteins. The mixture was then kept at −20° C. for 30 min. Precipitated proteins were separated by centrifugation (15,000×g, 4° C., 30 min) and supernatant of each sample was obtained and analyzed for quantification by analytical HPLC as described above. All assays were performed at least three times in technical duplicate, and data shown are representative of the replicates.

[5] = Plasma stability test using pyrene probes, monkey plasma; format: in vitro ADME, cynomolgus monkey; conditions: for % intact probe, 48 h incubation, Monkey / % intact probe, 96 h incubation, Monkey: undiluted monkey plasma, 37° C.
Method: as §2

[6] = Plasma stability test using pyrene probes, BALB/c mouse plasma; format: in vitro ADME; conditions: 37° C.; for stability in undiluted BALB/c plasma (in words): pyrene probes; for % intact probe, 48 h incubation, Mouse / % intact probe, 96 h incubation, Mouse: undiluted mouse plasma; for % intact probe, 96 h incubation, Mouse: 96 h (4-day)
Method: as §2

[7] = test system: Human neutrophil elastase; test: human neutrophil elastase in tris-buffered saline (TBS, pH 7.4); conditions: 37° C., up to 24 h
monkey cynomolgus plasma = conditions: 37° C., up to 96 h
[8] = Pooled healthy human plasma; conditions: 37° C., up to 96 h
human cathepsin G [9] = test: human cathepsin G in tris-buffered saline (TBS, pH 7.4); conditions: 37° C., up to 24 h
human proteinase 3 [10] = test: human proteinase 3 in tris-buffered saline (TBS, pH 7.4); conditions: 37° C., up to 24 h

Substance: Ac-Glu-Gly-Cit-PABC-sar-pyrene [EGCit 3a]
% intact probe, Neutrophil elastase [1]: 99.2 ± 0.3%
stability against human neutrophil elastase-mediated degradation (in words) [1]: marginal or almost no degradation
% intact probe, Proteinase 3 (human proteinase 3 [2]): 98.0 ± 1.1%
resistance to cleavage by human proteinase 3 (in words) (human proteinase 3 [2]): completely intact
% intact probe, Cathepsin G (human cathepsin G [3]): 100.0 ± 1.8%
resistance to cleavage by cathepsin G (in words) (human cathepsin G [3]; pyrene probes): completely intact
degradation in human plasma (in words) ([4]; pyrene probes): completely withstood degradation
% intact probe, 48 h incubation, Human [4]: 96.5%
% intact probe, 96 h incubation, Human [4]: 100.3%
degradation in monkey plasma (in words) ([5]; pyrene probes): completely withstood degradation
% intact probe, 48 h incubation, Monkey [5]: 98.7%
% intact probe, 96 h incubation, Monkey [5]: 98.8%
stability in undiluted BALB/c plasma (in words) [6]: improved stability compared to EVCit probe 2
% intact probe, 48 h incubation, Mouse [6]: 69.2%
% intact probe, 96 h incubation, Mouse [6]: 40.3%
% intact probe, 96 h incubation, Mouse ([6]; listed as EGCit probe 3a): 40%

cleaved bond [7]: valine-citrulline, major
Substance: VCit-PABC-pyrene

Substance: Ac-Glu-Leu-Cit-PABC-sar-pyrene [probe 3c]
stability against human neutrophil elastase-mediated degradation (in words) [1]: marginal or almost no degradation

not cleaved (monkey cynomolgus plasma): 98.8 ± 1.6 % intact probe after 96 h
not cleaved [8]: 100.3 ± 5.5 % intact probe after 96 h
not cleaved (human cathepsin G [9]): 100.0 ± 1.8 % intact probe after 24 h
not cleaved (human proteinase 3 [10]): 98.0 ± 1.1 % intact probe after 24 h
not cleaved [7]: 99.2 ± 0.3 % intact probe after 24 h
Substance: EGCit

Substance: Ac-Val-(N-Me)Cit-PABC-sar-pyrene [S1d]
stability against degradation mediated by neutrophil elastase or mouse plasma (in words) [1]: instability

Substance: Ac-Gly-Cit-PABC-sar-pyrene [probe 3f]
stability against human neutrophil elastase-mediated degradation (in words) [1]: marginal or almost no degradation
stability in undiluted BALB/c plasma (in words) [6]: less stable than the EGCit probe 3a

Substance: Ac-Glu-Phe-Cit-PABC-sar-pyrene [S1a]
stability against degradation mediated by neutrophil elastase or mouse plasma (in words) [1]: instability

Substance: Ac-Glu-(N-Me)Val-Cit-PABC-sar-pyrene [S1b]
stability against degradation mediated by neutrophil elastase or mouse plasma (in words) [1]: instability

not cleaved [7]: marginal or almost no degradation
Substance: ELCit

Substance: Ac-Glu-Ile-Cit-PABC-sar-pyrene [probe 3d]
stability against human neutrophil elastase-mediated degradation (in words) [1]: complete degradation

Substance: Ac-Glu-Ala-Cit-PABC-sar-pyrene [probe 3b]
stability against human neutrophil elastase-mediated degradation (in words) [1]: complete degradation
stability in undiluted BALB/c plasma (in words) [6]: improved stability compared to EVCit probe 2

not cleaved (monkey cynomolgus plasma): 91.9 ± 1.2 % intact probe after 96 h
not cleaved (human cathepsin G [9]): 99.6 ± 0.3 % intact probe after 24 h
not cleaved [7]: 99.0 ± 2.4 % intact probe after 24 h
Substance: EV(N-Me)Cit-PABC-pyrene

Substance: Ac-Glu-Val-(N-Me)Cit-PABC-sar-pyrene [EV(N-Me)Cit 3e]
% intact probe, Neutrophil elastase [1]: 99.0 ± 2.4%
stability against human neutrophil elastase-mediated degradation (in words) [1]: marginal or almost no degradation
% intact probe, Proteinase 3 (human proteinase 3 [2]): 84.4 ± 0.9%
resistance to cleavage by human proteinase 3 (in words) (human proteinase 3 [2]): partially degraded
% intact probe, Cathepsin G (human cathepsin G [3]): 99.6 ± 0.3%
% intact probe, 48 h incubation, Human [4]: 99.5%
% intact probe, 96 h incubation, Human [4]: 86.4%
% intact probe, 48 h incubation, Monkey [5]: 97.8%
% intact probe, 96 h incubation, Monkey [5]: 91.9%
stability in undiluted BALB/c plasma (in words) [6]: improved stability compared to EVCit probe 2
% intact probe, 48 h incubation, Mouse [6]: 37.8%
% intact probe, 96 h incubation, Mouse [6]: 12.0%

not cleaved [7]: marginal or almost no degradation
Substance: GCit

not cleaved (monkey cynomolgus plasma): 95.8 ± 1.8 % intact probe after 96 h
not cleaved [8]: 91.1 ± 1.1 % intact probe after 96 h
cleaved bond [7]: valine-citrulline
Substance: EVCit
